31 compounds from ChEMBL document CHEMBL2150865, “Remarkable potential of the α-aminophosphonate/phosphinate structural motif in medicinal chemistry” (J Med Chem, 2011) can be followed below.

The nature of data set [1]: AUC in healthy human at 10 mg dosed as single daily dose. In kind it is ADME, organism-based. The note with it: plasma.
Data set [2] in a line: Tmax in healthy human at 10 mg dosed as single daily dose. In kind it is ADME, organism-based. The note with it: in vivo.
For data set [3], the system named is Homo sapiens. Nature of the data set: Reduction in diastolic blood pressure in hypertensive patient receiving 10 to 40 mg/day, po dosed as single or multiple dose. Further details: scale not given: the % may be the effect or the level left. In kind it is functional, Artery.
Data set [4] relates to Homo sapiens. Put plainly: Reduction in arterial blood pressure in hypertensive patient receiving 10 to 40 mg/day, po dosed as single or multiple dose. On the set-up: scale not given: the % may be the effect or the level left. In kind it is functional.
Data set [5] can be described thus: Cmax in healthy human at 10 mg dosed as single daily dose. In kind it is ADME, organism-based. Further details: dose 10 mg. The note with it: in vivo.
A short description of data set [6]: Drug absorption in healthy human at 10 mg dosed as single daily dose. In kind it is ADME, organism-based. The note with it: in vivo, read-out: Drug absorption.
The test system of data set [7] is Homo sapiens. Nature of the data set: Reduction in systolic blood pressure in hypertensive patient receiving 10 to 40 mg/day, po dosed as single or multiple dose. Format: functional, Artery. On the set-up: scale not given: the % may be the effect or the level left.
Data set [8] concerns the target T1, Angiotensin-converting enzyme (Homo sapiens, UniProt P12821). Put plainly: Inhibition of human ACE N-terminal domain expressed in CHO cells after 90 mins by fluorescence assay. In kind it is cell-based.
In data set [9] the target is T1, Angiotensin-converting enzyme. Nature of the data set: Inhibition of human ACE C-terminal domain expressed in CHO cells after 90 mins by fluorescence assay. Format: cell-based.
Another data set deals with Aminopeptidase N (Homo sapiens, UniProt P15144). Nature of the data set: Inhibition of APN.
Another data set deals with Cytosol aminopeptidase (Homo sapiens, UniProt P28838). Put plainly: Inhibition of LAP.
A short description of data set [10]: Half life in pH 7.8 buffer. Format: physicochemical.
Data set [11] deals with Rattus norvegicus. Put plainly: Suppression of acute pulmonary transplant rejection in rat at 100 mg/kg. In kind it is functional.
Data set [12] concerns Rattus norvegicus. Nature of the data set: Suppression of acute pulmonary transplant rejection in rat at 100 mg/kg at 100 mg/kg followed by 60 mg/kg/day until day 4 after surgery measured on day 5 post initial dose. Format: functional.
Data set [13] is described as follows: Terminal half life in healthy human at 10 mg dosed as single daily dose. Format: ADME, organism-based. The note with it: in vivo, read-out: beta t1/2 (converted).
Data set [14] is described as follows: Total body clearance in healthy human at 10 mg dosed as single daily dose. The note with it: in vivo. In kind it is ADME, organism-based.
In data set [15] the target is T1, Angiotensin-converting enzyme. Nature of the data set: Inhibition of ACE.
Data set [16] can be described thus: Inhibition of Bacillus pasteurii urease. Further details: species or system Sporosarcina pasteurii.
For another data set, the target named is Collagenase 3 (Homo sapiens, UniProt P45452). Nature of the data set: Inhibition of MMP-13.
Data set [17] has as its target Matrix metalloproteinase-14 (Homo sapiens, UniProt P50281). Nature of the data set: Inhibition of MMP-14.
The nature of data set [18]: Inhibition of urease in intact Proteus mirabilis.
A short description of data set [19]: Inhibition of ECE.
The nature of data set [20]: Inhibition of bacterial APN. On the set-up: species or system Bacteria.
The species entered for data set [21] is Rattus norvegicus. Put plainly: Inhibition of bone resorption in rat. In kind it is functional. The note with it: read-out: MED.
Data set [22] has as its target T2, Farnesyl pyrophosphate synthase (Homo sapiens, UniProt P14324).
T2 sequence (P14324 whole entry): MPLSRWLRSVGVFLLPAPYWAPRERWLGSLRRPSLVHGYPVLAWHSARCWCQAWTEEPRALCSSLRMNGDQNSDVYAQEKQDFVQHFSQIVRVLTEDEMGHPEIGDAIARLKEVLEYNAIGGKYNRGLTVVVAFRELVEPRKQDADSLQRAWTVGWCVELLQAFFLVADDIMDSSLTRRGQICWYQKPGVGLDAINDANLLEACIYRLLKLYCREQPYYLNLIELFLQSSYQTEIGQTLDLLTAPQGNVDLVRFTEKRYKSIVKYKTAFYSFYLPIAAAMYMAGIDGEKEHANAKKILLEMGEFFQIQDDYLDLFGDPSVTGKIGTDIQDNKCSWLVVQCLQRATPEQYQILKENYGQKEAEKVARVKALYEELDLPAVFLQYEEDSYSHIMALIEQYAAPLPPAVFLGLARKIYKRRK

The subject of a further data set is MDA-MB-231. Put plainly: Growth inhibition of human MDA-MB-231 cells. Format: functional, cell-based.
Another data set relates to Oryctolagus cuniculus. Nature of the data set: Inhibition of DPP4 activity in rabbit plasma at 1 to 10 mg, iv. In kind it is functional.
Data set [23] is described as follows: Half life in human at 200 mg, im. Format: ADME, organism-based. The note with it: in vivo.
Data set [24] is described as follows: Half life in Sprague-Dawley rat at 20 mg/kg, sc administered as single dose. Format: ADME, organism-based. Further details: dose 20 mg/kg, route subcutaneous. The note with it: in vivo.
Data set [25] concerns Rattus norvegicus. Nature of the data set: AUC in Sprague-Dawley rat at 20 mg/kg, sc administered as single dose. Format: ADME, organism-based, Plasma. Further details: dose 20 mg/kg, route subcutaneous. The note with it: in vivo.
Data set [26] is described as follows: Tmax in Sprague-Dawley rat at 20 mg/kg, sc administered as single dose. In kind it is ADME, organism-based. On the set-up: dose 20 mg/kg, route subcutaneous. The note with it: in vivo.

By AUC is commonly meant the area under the concentration-time curve, a measure of exposure. The term Tmax denotes the time at which the peak concentration occurs. What is called Cmax is the highest concentration seen after dosing. Broadly, the Ki is a dissociation constant, usually derived from enzyme kinetics or from competition with a known ligand. The term clearance denotes a measure of how efficiently the substance is removed, as volume per time. As usually defined, the IC50 is the concentration that inhibits the measured activity by half.

T1 sequence (P12821 whole entry, the tested form may be a part): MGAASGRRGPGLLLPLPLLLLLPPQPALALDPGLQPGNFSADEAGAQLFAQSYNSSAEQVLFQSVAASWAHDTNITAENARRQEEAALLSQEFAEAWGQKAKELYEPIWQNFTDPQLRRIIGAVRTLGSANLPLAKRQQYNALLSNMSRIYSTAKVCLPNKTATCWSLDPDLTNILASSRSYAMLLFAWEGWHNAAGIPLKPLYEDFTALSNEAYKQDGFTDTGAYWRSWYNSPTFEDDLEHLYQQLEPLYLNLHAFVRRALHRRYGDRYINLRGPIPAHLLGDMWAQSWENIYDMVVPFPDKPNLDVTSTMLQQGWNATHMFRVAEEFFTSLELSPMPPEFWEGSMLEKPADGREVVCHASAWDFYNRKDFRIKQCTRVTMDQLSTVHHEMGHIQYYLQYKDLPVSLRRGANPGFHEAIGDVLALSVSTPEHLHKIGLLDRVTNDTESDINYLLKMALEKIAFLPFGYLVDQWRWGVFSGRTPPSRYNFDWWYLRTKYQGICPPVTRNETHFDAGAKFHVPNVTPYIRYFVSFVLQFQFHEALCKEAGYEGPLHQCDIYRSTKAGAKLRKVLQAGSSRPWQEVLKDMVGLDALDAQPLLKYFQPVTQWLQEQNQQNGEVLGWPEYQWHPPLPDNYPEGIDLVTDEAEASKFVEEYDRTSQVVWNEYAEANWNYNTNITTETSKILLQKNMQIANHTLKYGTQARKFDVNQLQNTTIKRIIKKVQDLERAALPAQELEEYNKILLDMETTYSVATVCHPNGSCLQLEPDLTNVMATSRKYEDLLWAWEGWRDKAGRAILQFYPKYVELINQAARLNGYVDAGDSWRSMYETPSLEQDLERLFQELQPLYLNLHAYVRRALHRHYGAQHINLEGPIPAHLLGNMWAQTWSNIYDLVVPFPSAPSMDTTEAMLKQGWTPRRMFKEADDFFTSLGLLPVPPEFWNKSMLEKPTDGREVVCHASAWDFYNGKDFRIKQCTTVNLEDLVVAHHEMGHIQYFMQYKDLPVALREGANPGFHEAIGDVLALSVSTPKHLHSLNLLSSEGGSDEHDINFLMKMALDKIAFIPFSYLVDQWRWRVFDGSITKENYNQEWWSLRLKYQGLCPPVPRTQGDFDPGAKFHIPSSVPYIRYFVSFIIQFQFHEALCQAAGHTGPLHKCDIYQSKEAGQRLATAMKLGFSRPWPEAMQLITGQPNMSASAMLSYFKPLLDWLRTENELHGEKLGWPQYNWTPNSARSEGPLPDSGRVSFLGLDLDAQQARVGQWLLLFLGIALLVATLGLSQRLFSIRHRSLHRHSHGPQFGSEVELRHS
Chain of Cytosol aminopeptidase (P28838 whole entry): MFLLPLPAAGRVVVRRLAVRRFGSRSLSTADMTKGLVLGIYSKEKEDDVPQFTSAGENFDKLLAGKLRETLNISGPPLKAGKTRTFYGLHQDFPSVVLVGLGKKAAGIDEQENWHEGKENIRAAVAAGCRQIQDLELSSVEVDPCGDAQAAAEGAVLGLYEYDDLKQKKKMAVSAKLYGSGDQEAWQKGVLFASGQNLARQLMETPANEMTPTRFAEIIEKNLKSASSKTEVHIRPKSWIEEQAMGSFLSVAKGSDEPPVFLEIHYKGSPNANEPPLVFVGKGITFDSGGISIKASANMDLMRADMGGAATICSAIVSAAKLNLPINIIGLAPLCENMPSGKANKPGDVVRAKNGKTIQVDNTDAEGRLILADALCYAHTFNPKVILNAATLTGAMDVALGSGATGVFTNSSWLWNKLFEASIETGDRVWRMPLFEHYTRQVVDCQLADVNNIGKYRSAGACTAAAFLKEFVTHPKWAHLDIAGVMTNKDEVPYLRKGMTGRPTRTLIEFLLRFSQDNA
Chain of Aminopeptidase N (P15144 whole entry): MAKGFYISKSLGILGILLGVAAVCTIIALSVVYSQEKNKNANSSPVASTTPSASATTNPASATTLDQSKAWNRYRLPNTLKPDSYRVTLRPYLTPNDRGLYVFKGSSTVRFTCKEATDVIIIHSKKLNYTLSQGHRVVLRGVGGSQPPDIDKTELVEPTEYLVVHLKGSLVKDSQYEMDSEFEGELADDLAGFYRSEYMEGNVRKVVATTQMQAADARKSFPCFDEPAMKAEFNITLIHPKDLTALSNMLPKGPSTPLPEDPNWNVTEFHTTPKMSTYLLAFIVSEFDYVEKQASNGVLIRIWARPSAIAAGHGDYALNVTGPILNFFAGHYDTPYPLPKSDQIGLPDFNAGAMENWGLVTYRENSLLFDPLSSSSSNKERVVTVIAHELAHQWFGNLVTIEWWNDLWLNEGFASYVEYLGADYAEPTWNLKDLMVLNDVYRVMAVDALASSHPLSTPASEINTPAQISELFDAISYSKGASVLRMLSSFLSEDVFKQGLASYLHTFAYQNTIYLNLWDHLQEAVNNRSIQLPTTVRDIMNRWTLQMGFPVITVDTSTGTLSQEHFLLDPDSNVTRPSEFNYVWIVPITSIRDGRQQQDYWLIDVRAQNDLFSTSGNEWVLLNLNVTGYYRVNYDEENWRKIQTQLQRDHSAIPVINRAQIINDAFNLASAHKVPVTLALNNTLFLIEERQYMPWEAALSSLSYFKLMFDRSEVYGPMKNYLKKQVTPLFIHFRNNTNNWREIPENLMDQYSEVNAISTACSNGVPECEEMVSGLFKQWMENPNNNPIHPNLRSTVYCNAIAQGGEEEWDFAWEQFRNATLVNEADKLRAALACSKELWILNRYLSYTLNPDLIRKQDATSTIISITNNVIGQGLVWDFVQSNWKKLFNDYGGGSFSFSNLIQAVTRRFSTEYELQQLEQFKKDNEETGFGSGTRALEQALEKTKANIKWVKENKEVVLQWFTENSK

In the case of `CCC(=O)O[C@@H](O[P@](=O)(CCCCc1ccccc1)CC(=O)N1C[C@H](C2CCCCC2)C[C@H]1C(=O)O)C(C)C` [FOSINOPRIL], in data set [1], the AUC stood at 1000 ng·h/mL. In addition, the Tmax in data set [2] stood at 3 h. The Activity with Homo sapiens [3], in the data set on Homo sapiens [4] and with Homo sapiens [7] was 10% each time. This compound registered a Cmax in data set [5] of 100 ng/mL. Moreover, the Fa in data set [6] was 30%.

In the case of `O=C(N[C@@H](Cc1ccccc1)P(=O)(O)C1CCC[C@H]1C(=O)N[C@@H](Cc1c[nH]c2ccccc12)C(=O)O)OCc1ccccc1` (stereo not given in full), the results for the Ki in data set [8] and in [9] were 10000 nM and 3 nM, respectively.

Consider `CC(C)CC(CP(=O)(O)[C@@H](N)CC(C)C)C(=O)O` (mixture of isomers), for which the Ki on Aminopeptidase N turned out to be 1020 nM; at Cytosol aminopeptidase, 65 nM.

In the case of `CC(=O)Nc1ccc(OP(=O)(Oc2ccc(NC(C)=O)cc2)C2CCCN2C(=O)[C@@H]2CCCN2)cc1` (stereo not given in full), in [10], the half-life worked out at 5.33 h. Further, the Activity with Rattus norvegicus [11] is greater than 95%; in the data set on Rattus norvegicus [12], greater than 90%.

Regarding `O=C(O)[C@@H]1C[C@@H](C2CCCCC2)CN1C(=O)CP(=O)(O)CCCCc1ccccc1` [FOSINOPRILAT], the half-life in data set [13] was 12 h. This compound also had a clearance in data set [14] of 25.8 mL/min. The compound further yielded a Ki in [15] of 1.5 nM.

On to `CN(C)CP(C)(=O)O` [(DIMETHYLAMINO)METHYL(METHYL)PHOSPHINIC ACID], for which the affinity in data set [16] corresponds to a Ki of 620 nM.

In the case of `NC(=O)[C@H](Cc1c[nH]c2ccccc12)NC(=O)[C@@H](CP(=O)(O)[C@H](Cc1ccccc1)NC(=O)OCc1ccccc1)c1cc(-c2cccc(Oc3ccccc3)c2)no1`, the Ki turned out to be 28 nM on Collagenase 3 and 5100 nM in [17].

`CNCP(=O)(O)CO` [HYDROXYMETHYL((METHYLAMINO)METHYL)PHOSPHINIC ACID]: in data set [16], the Ki came to 430 nM.

As for `CC(C)CC(N)P(=O)(O)O[C@@H](CC(C)C)C(=O)O` (stereo not given in full), the Ki at Cytosol aminopeptidase worked out at 58000 nM.

For `O=C(N[C@@H](CCc1ccccc1)CP(=O)(O)CC(=O)N1CCC[C@H]1C(=O)O)c1ccccc1`, the IC50 in data set [15] amounted to 12 nM.

As to `CP(O)(=S)CNC(=O)CNC(=O)OCc1ccccc1` (stereo not given), the affinity in data set [16], expressed as Ki, was 170 nM.

Compound `CC(=O)NO` [ACETOHYDROXAMIC ACID] displayed an IC50 in data set [18] of 64400 nM.

In turn, `NCP(=O)(O)CO` [AMINOMETHYL(HYDROXYMETHYL)PHOSPHINIC ACID] came in with a Ki in data set [16] of 95000 nM.

In data set [19], `O=C(N[C@@H](Cc1ccccc1)P(=O)(O)C[C@H](Cc1cc(-c2ccccc2)no1)C(=O)N[C@@H](Cc1ccc(O)cc1)C(=O)O)OCc1ccccc1` displayed a Ki of 14 nM.

As to `C[C@H](N)P(=O)(O)C[C@@H](Cc1ccccc1)C(=O)N[C@@H](Cc1ccccc1)C(=O)O`, in data set [20], the Ki amounted to 1.5 nM.

On to `O=P(O)(O)C(NC1CCCCCC1)P(=O)(O)O` [INCADRONIC ACID], for which the minimal effective dose in the data set filed under Rattus norvegicus [21] is 1 µg/kg. Half-maximal inhibition in [22] (IC50) was put at 30 nM.

For the compound `O=P(O)(O)C(O)(Cc1cccnc1)P(=O)(O)O` [RISEDRONIC ACID], the minimal effective dose in the data set filed under Rattus norvegicus [21] amounted to 0.3 µg/kg.

On to `C[C@H](N)C(=O)N1CCCC1P(=O)(Oc1ccc(Cl)cc1)Oc1ccc(Cl)cc1` (stereo not given in full), for which, in data set [10], the half-life was greater than 48 h.

In [16], `CNCP(C)(=O)O` [METHYL((METHYLAMINO)METHYL)PHOSPHINIC ACID] showed a Ki of 18000 nM. In [18], this compound displayed an IC50 of 36000 nM.

The compound `CP(=O)(O)CN` [AMINOMETHYL(METHYL)PHOSPHINIC ACID] gave a Ki in data set [16] of 340000 nM.

With `CP(=O)(O)CNC(=O)CN`, in data set [16], the Ki turned out to be 21000 nM.

As to `CCOC(=O)CNC(=O)c1ccc(OP(=O)(Oc2ccc(C(=O)NCC(=O)OCC)cc2)C2CCCN2C(=O)[C@@H]2CCCN2)cc1` (stereo not given in full), the half-life in data set [10] was determined as 0.583 h.

As to `CCCCCCCCCCOc1ccc[n+](CC(P(=O)([O-])O)P(=O)(O)O)c1` (stereo not given), in the data set with MDA-MB-231, the IC50 was determined as 100 nM.

For the compound `CC(=O)N[C@@H](CC(=O)O)C(=O)N[C@@H](Cc1ccccc1)P(=O)(O)C[C@@H](C)C(=O)N[C@@H](C)C(N)=O`, the Ki in data set [8] was found to be 7 nM; in data set [9], 7500 nM.

On to `O.O=P(O)(O)C(O)(Cn1ccnc1)P(=O)(O)O` [ZOLEDRONIC ACID], for which the minimal effective dose in the data set listed under Rattus norvegicus [21] amounted to 0.1 µg/kg.

As for `O=C([C@@H]1CCCN1)N1CCCC1P(=O)(Oc1ccccc1)Oc1ccccc1` (stereo not given in full), the “inhibition (INH)” value in the data set with Oryctolagus cuniculus is given as 80%.

In turn, `C[C@H](N)C(=O)N1CCCCC1P(=O)(Oc1ccc(Cl)cc1)Oc1ccc(Cl)cc1` (stereo not given in full) yielded a half-life in [10] greater than 48 h.

Regarding `CN(C)CP(=O)(O)CO` [(DIMETHYLAMINO)METHYL(HYDROXYMETHYL)PHOSPHINIC ACID], the affinity in [16] corresponds to a Ki of 5000 nM.

Take `NCCCC(O)(P(=O)(O)O)P(=O)(O)O` [ALENDRONIC ACID]: in the data set listed under Rattus norvegicus [21], the minimal effective dose was 1 µg/kg.

Regarding `C[C@H](N)C(=O)N[C@@H](C)P(=O)(O)O` [ALAFOSFALIN], the half-life is 1 h in [23] and 0.333 h in data set [24]. This compound also gave an AUC in the data set on Rattus norvegicus [25] of 25000 ng·h/mL. The Tmax in data set [26] was 0.333 h.

`NCCC(O)(P(=O)(O)O)P(=O)(O)O` [PAMIDRONIC ACID]: in the data set filed under Rattus norvegicus [21], the minimal effective dose turned out to be 30 µg/kg.
